According to US5753664A, “Heterocyclic compounds, their production and use” (Takeda Chemical Industries, Ltd., priority 1995, dated 1998):
Where a name gives a salt, the structure may show the parent alone. Read-outs that look alike come from different tables or passages of the source.

Key:
[1] = tested on: Prostate carcinoma cell line PC-3; test: In vitro prostate carcinoma cell proliferation inhibition assay (MTT); type: cell-based, human; conditions: read-out: IC50 PC-3
Method: In vitro prostate carcinoma cell proliferation inhibition assay
Prostate carcinoma cell line PC-3 cells were suspended in Ham's F-12K medium (Flow Laboratories or Dainippon Pharmaceutical Co,. Ltd) supplemented with 10% fetal calf serum, and seeded in a 96-well microtiter plate (5000 cells/50 or 75 μl/well). The plate was then incubated in a 5% CO2 incubator at 37° C. On the following day, a 3-fold dilution series with the medium with serum of the test compound in N,N-dimethylformamide (DMF) (50 or 25 μl/well) were added (final volume […]) and the plate was incubated for another 3 days. Following addition of a thiazolyl-tetrazolium (MTT) solution, absorbance based on the viable cell number was determined "Tada et al., Journal of Immunological Methods, 93, 157 (1986)". With the estimated cell number in the control group to which the test compound solution was not added being taken as 100%, the percentage of the estimated cell number in each test group was determined and the concentration (IC50 value) of the test compound which was required for 50% inhibition of the estimated viable cell number in the control group was calculated.

[2] = tested on: human prostatic carcinoma cells PC-3; test: Inhibitory action against the growth of subcutaneously implanted tumor (Test Example 4, oral dosing); type: in vivo, human; BALB/c nu/nu mouse; conditions: once a day for 3 weeks; for Tumor volume gain: 52nd day after transplantation, mean ± SD; for T/C: 52nd day, ratio of tumor volume gain treated/control
Method: Inhibitory action of the test compound against the growth of subcutaneously implanted tumor
The human prostatic carcinoma cells PC-3, which are maintained in vitro, were harvested using 0.05% trypsin, washed with Ham's F12K medium containing 10% serum, and then suspended in PBS (phosphate-buffered saline) at a concentration of 3×10^7 cells/ml. The aliquot of 100 μl was transplanted into the right central flank region of a 7-week old, male BALB/c nu/nu mouse using a syringe with a 25 gauge needle. After the size of the resulting tumor mass was measured on the 31st day after the transplanation, the mice were divided into groups of five animals (the average tumor volume of each group was between 273 and 293 mm^3), and then the treatment with test compound was commenced. Tumor volume was calculated according to the formulation: tumor volume=0.5×(the longest diameter)×(the shortest diameter)^2 after two-dimensional measurement of the tumor mass by a caliper. The test compound was suspended in 0.5% methylcellulose/physiological saline, and orally administered at a volume of 10 μl/g body weight. Thereafter the test compound was administered once a day for 3 weeks. The inhibitory action was assessed on the 52nd day after the transplanation, the first day after the last administration, by the ratio of tumor volume gain of treated groups to that of the control group (T/C %). The dosage of the test compound is expressed as mg/kg/shot.

[3] = Homo sapiens, 72 h, PC-3, 3 days incubation, MTT

SMILES | IC50 [1, 3] [nM] | also measured
Cc1cn(C)c2nc(SCc3ccc(C(=O)c4ccc(F)cc4)cc3)n(C)c(=O)c12 [57(A), 2-[4-(4-Fluorobenzoyl)benzyl]thio-3,5,7-trimethyl-7H-pyrrolo[2,3-d]pyrimidin-4(3H)-one] | 5 | –
Cc1cn(C)c2nc(SC(C)c3ccc(C(=O)c4ccc(F)cc4)cc3)n(C)c(=O)c12 (stereo not drawn) [57(B), 2-[1-[4-(4-Fluorobenzoyl)phenyl]ethyl]thio-3,5,7-trimethyl-7H-pyrrolo[2,3-d]pyrimidin-4(3H)-one] | 9 | –
CC(C)(C)n1ncc2c(cnn2Cc2ccc(C(=O)c3ccc(Cl)cc3)cc2)c1=O [62(A), 5-Tert-butyl-1-[4-(4-chlorobenzoyl)benzyl]-1H-pyrazolo[3,4-d]pyridazin-4(5H)-one] | < 1.52 | –
Cc1nn(Cc2ccc(C(=O)c3ccc(Cl)cc3)cc2)c2cnn(C)c(=O)c12 [84(A), 1-[4-(4-Chlorobenzoyl)benzyl]-3,5-dimethyl-1H-pyrazolo [3,4-d]pyridazin-4(5H)-one] | 2 | –
CCn1c(SC)nc2c(cnn2Cc2ccc(C(=O)c3ccc(Cl)cc3)cc2)c1=O [129(A)] | < 1.52 | –
CCn1c(SC)nc2c(cnn2Cc2ccc(C(=O)c3ccc(OC)cc3)cc2)c1=O [132(A), 5-Ethyl-1-[4-(4-methoxybenzoyl)benzyl]-6-methylthio-1,5-dihydro-4H-pyrazolo[3,4-d]pyrimidin-4-one] | 2 | –
Cn1ncc2c(c(Cl)c(Cl)n2Cc2ccc(C(=O)c3ccc(Cl)cc3)cc2)c1=O [Example 37, 1-[4-(4-Chlorobenzoyl)benzyl]-2,3-dichloro-5-methyl-1H-pyrrolo[2,3-d]pyridazin-4(5H)-one] | 6 | –
Cc1c[nH]c2nc(SCc3ccc(C(=O)c4ccc(Cl)cc4)cc3)[nH]c(=O)c12 [Example 50, 2-[4-(4-Chlorobenzoyl)benzyl]thio-5-methyl-7H-pyrrolo[2,3-d]pyrimidin-4(3H)-one] | 9 | –
Cc1cn(C)c2nc(SCc3ccc(C(=O)c4ccc(Cl)cc4)cc3)n(C)c(=O)c12 [Example 55, 2-[4-(4-Chlorobenzoyl)benzyl]thio-3,5,7-trimethyl-7H-pyrrolo[2,3-d]pyrimidin-4(3H)-one] | < 1.52 | –
Cn1ncc2c(c(Cl)c(Cl)n2Cc2ccc(C(=O)c3ccc(F)cc3)cc2)c1=O [Example 66, 1-[4-(4-Fluorobenzoyl)benzyl]-2,3-dichloro-5-methyl-1H-pyrrolo [2,3-d]pyridazin-4(5H)-one] | 8 | –
Cc1cn(Cc2ccc(C(=O)c3ccc(Cl)cc3)cc2)c2ncn(C)c(=O)c12 [Example 94, 7-[4-(4-Chlorobenzoyl)benzyl]-3,5-dimethyl-7H-pyrrolo [2,3-d]pyrimidin-4(3H)-one] | 2 | –
CCn1cnc2c(c(C)cn2Cc2ccc(C(=O)c3ccc(Cl)cc3)cc2)c1=O [Example 96, 7-[4-(4-Chlorobenzoyl)benzyl]-3-ethyl-5-methyl-7H-pyrrolo [2,3-d]pyrimidin-4(3H)-one] | < 1.52 | –
Cc1c(OCc2ccc(C(=O)c3ccc(C(F)(F)F)cc3)cc2)nc2ccccn2c1=O [Example 124, 3-Methyl-2-[4-(4-trifluoromethylbenzoyl)benzyloxy]pyrido[1,2-a]pyrimidin-4-one] | 8 | –
Cc1cccc2nc(SCc3ccc(C(=O)c4ccc(CSc5nnnn5CCN(C)C)cc4)cc3)n(C)c(=O)c12 [Example 138, 3,5-Dimethyl-2-[4-[4-[[1-(2-dimethylaminoethyl)-1H-tetrazol-5-yl]thiomethyl]benzoyl]benzylthio]-4(3H)-quinazolinone] | < 1.52 | –
Cc1cccc2nc(SCc3ccc(C(=O)c4ccc(CN5CCN(C)CC5)cc4)cc3)n(C)c(=O)c12 [Example 144, 3,5-Dimethyl-2-[4-[4-(4-methylpiperazinylmethyl)benzoyl]benzylthio]-4(3H)-quinazolinone] | < 1.52 | –
Cc1csc2nc(SCc3ccc(C(=O)c4ccc(OCCN5CCOCC5)cc4)cc3)n(C)c(=O)c12 [Example 148, 3,5-Dimethyl-2-[4-[4-(2-morpholinoethoxy)benzoyl]-benzylthio]thieno[2,3-d]pyrimidin-4(3H)-one] | < 1.52 | –
Cn1c(SCc2ccc(C(=O)c3ccc(N4CCC(N5CCCCC5)CC4)nc3)cc2)nc2ccsc2c1=O [Example 158, 3-Methyl-2-[4-[6-(4-piperidinopiperidinyl)nicotinoyl]benzylthio]thieno[3,2-d]pyrimidin-4(3H)-one hydrochloride] | 4.5 | –
CCc1c(C)nc2n(Cc3ccc(C(=O)c4ccc(Cl)cc4)cc3)ccn2c1=O [Example 169, 1-[4-(4-Chlorobenzoyl)benzyl]-6-ethyl-7-methylimidazo[1,2-a]pyrimidin-5(1H)-one] | < 1.52 | –
Cc1nc2n(Cc3ccc(C(=O)c4ccc(Cl)cc4)cc3)ccn2c(=O)c1C(C)C [Example 181, 1-[4-(4-Chlorobenzoyl)benzyl]-6-isopropyl-7-methylimidazo[1,2-a]pyrimidin-5(1H)-one] | 3 | –
Cc1cccc2nc(SCc3ccc(C(=O)c4ccc(C(=O)N5CCN(C)CC5)cc4)cc3)n(C)c(=O)c12 [Example 184, 3,5-Dimethyl-2-[4-[4-(4-methylpiperazinocarbonyl)benzoyl]benzyl]thio-4(3H)-quinazolinone] | < 1.52 | –
Cc1cccc2nc(SCc3ccc(C(=O)c4ccc(C(=O)N5CCC(N6CCCCC6)CC5)cc4)cc3)n(C)c(=O)c12 [Example 193, 3,5-Dimethyl-2-[4-[4-(4-piperidinopiperidinocarbonyl)benzoyl]benzyl]thio-4(3H)-quinazolinone] | 2 | –
CCc1cccc2nc(SCc3ccc(C(=O)c4ccc(Cl)cc4)cc3)n(C)c(=O)c12 [Example 214, 2-[4-(4-Chlorobenzoyl)benzyl]thio-5-ethyl-3-methyl-4(3H)-quinazolinone] | 5.2 | –
CCOP(=O)(OCC)Oc1ccc(C(=O)c2ccc(CSc3nc4cccc(C)c4c(=O)n3C)cc2)cc1 [Example 217, 2-[4-(4-Diethylphosphonooxybenzoyl)benzylthio]-3,5-dimethyl-4(3H)-quinazolinone] | – | IC50 ([1]; PC-3, 3 days incubation, MTT): < 1.52 nM
Cc1cccc2nc(SCc3ccc(C(=O)c4ccc(OC(=O)N(C)C)cc4)cc3)n(C)c(=O)c12 [Example 228, 3,5-Dimethyl-2-[4-[4-(N,N-dimethylcarbamoyloxy)-benzoyl]benzylthio]-4(3H)-quinazolinone] | – | IC50 ([1]; Homo sapiens, 72 h): 7 nM
Cc1cccc2nc(SCc3ccc(C(=O)c4ccc(OCC(=O)c5ccccc5)cc4)cc3)n(C)c(=O)c12 [Example 234, 3,5-Dimethyl-2-[4-(4-phenacyloxybenzoyl)benzylthio]-4-(3H)-quinazolinone] | 7 | –
CCn1c(SC)nc2c(ccn2Cc2ccc(C(=O)c3ccc(Cl)cc3)cc2)c1=O [Example 252, 7-[4-(4-Chlorobenzoyl)benzyl]-3-ethyl-2-methylthio-7H-pyrrolo[2,3-d]pyrimidin-4-one] | < 1.52 | –
O=C(c1ccc(Cn2ccn3c(=O)c4c(nc23)CCCC4)cc1)c1ccc(C(F)(F)F)cc1 [Example 329, 1-[4-(4-Trifluorobenzoyl)benzyl]-6,7,8,9-tetrahydroimidazo[2,1-b]quinazolin-5(1H)-one] | 2.6 | –
Cc1c(SCc2ccc(C(=O)c3ccc(C(F)(F)F)cc3)cc2)nc2n(c1=O)CCCS2 [Example 365, 3,4-Dihydro-7-methyl-8-(4-(4-trifluoromethylbenzoyl)benzylthio)-2H,6H-pyrimido[2,1-b][1,4]thiazin-6-one] | 6.2 | –
Cc1c(OCc2ccc(C(=O)c3ccc(C(F)(F)F)cc3)cc2)nc2n(c1=O)CCCC2 [Example 385, 3-Methyl-2-[4-(4-trifluoromethylbenzoyl)benzyloxy]-6,7,8,9-tetrahydro-4H-pyrido[1,2-a]pyrimidin-4-one] | 4.6 | Tumor volume gain ([2]; 25 mg/kg p.o.): 893 ± 247 mm^3; T/C ([2]; 25 mg/kg p.o.): 63%; Tumor volume gain ([2]; 50 mg/kg p.o.): 732 ± 156 mm^3; T/C ([2]; 50 mg/kg p.o.): 52%; Tumor volume gain ([2]; 75 mg/kg p.o.): 596 ± 176 mm^3; T/C ([2]; 75 mg/kg p.o.): 42%
Cc1ccc(C(=O)c2ccc(COc3nc4n(c(=O)c3C)CCCS4)cc2)cc1 [Example 406, 7-Methyl-8-[4-(4-methylbenzoyl)benzyloxy]-3,4-dihydro-2H,6H-pyrimido[2,1-b][1,3]thiazin-6-one] | 0.94 | –
